Broadly, the IC50 is the concentration that inhibits the measured activity by half. A word on the half-life: it is how long it takes for the measured level to halve. The term TGI denotes the reduction of tumour growth relative to the control group. Broadly, the ΔTm is the shift of the melting midpoint relative to a reference. One may read the Kd as the constant that tells how readily two partners part at equilibrium.

The source of these data is ChEMBL document CHEMBL5154870, “Discovery of novel glutaminase 1 allosteric inhibitor with 4-piperidinamine linker and aromatic heterocycles” (Eur J Med Chem, 2022).

The subject of series [1] is HCT-116. The experiment in a line: Antiproliferative activity against human HCT-116 cells overexpressing GLS1 assessed as inhibition of cell proliferation measured after 72 hrs by MTT assay. The format is functional, cell-based. The conditions noted are these: HCT-116, 72 h. Background: Tetrazolium dyes change colour on reduction, which living cells bring about.
A short description of series [2]: Metabolic stability in human liver microsomes assessed as intrinsic clearance at 10 uM by LC-MS/MS analysis. The conditions noted are these: read-out: CLH. The format is ADME, Microsome. (In general: Microsomes from liver hold many membrane-bound enzymes, among them those of drug oxidation.)
Series [3] deals with T1, Glutaminase kidney isoform, mitochondrial (Homo sapiens, UniProt O94925).
T1 sequence (O94925 whole entry): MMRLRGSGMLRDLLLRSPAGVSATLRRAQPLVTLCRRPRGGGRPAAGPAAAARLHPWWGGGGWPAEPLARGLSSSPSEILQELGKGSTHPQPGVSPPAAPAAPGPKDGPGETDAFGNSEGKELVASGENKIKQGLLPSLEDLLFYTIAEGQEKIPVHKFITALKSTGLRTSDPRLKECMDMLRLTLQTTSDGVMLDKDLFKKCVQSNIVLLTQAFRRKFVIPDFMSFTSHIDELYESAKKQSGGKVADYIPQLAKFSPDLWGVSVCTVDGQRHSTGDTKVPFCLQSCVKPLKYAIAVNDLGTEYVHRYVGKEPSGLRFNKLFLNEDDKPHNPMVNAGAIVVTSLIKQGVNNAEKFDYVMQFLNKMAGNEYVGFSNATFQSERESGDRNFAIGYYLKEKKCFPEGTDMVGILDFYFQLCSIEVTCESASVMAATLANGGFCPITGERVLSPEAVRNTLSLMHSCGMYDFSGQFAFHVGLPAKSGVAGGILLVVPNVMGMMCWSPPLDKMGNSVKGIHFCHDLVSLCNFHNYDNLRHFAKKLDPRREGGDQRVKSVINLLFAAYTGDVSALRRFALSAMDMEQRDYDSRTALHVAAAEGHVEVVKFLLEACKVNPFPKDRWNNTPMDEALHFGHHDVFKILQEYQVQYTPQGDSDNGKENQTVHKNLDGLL
The experiment in a line: Allosteric inhibition of human GLS1 using glutamine as substrate incubated for 60 mins by NADH/NADPH-based absorbance analysis.

Another series concerns MDA-MB-436. Briefly: Antiproliferative activity against human MDA-MB-436 cells overexpressing GLS1 assessed as inhibition of cell proliferation measured after 72 hrs by MTT assay. The series is classed as functional, cell-based. Conditions: MDA-MB-436, 72 h.
Series [4] can be described thus: Metabolic stability in human liver microsomes assessed as half life at 10 uM by LC-MS/MS analysis. The series is classed as ADME, Microsome. The conditions noted are these: for half-life at 10 µM: liver microsomes.
Series [5] can be described thus: Metabolic stability in human plasma assessed as parent compound remaining at 1 uM measured after 2 hrs by LC-MS/MS analysis. The format is ADME, cell-free. Conditions: read-out: Stability.
Series [6] is described as follows: Metabolic stability in human liver microsomes assessed as parent compound remaining at 10 uM measured after 30 mins by LC-MS/MS analysis. The format is ADME, Microsome.
The nature of series [7]: Metabolic stability in human liver microsomes assessed as parent compound remaining at 10 uM measured after 60 mins by LC-MS/MS analysis. The series is classed as ADME, Microsome.
Another series deals with CT26. Briefly: Antiproliferative activity against mouse CT26 cells overexpressing GLS1 assessed as inhibition of cell proliferation measured after 72 hrs by MTT assay. The format is functional, cell-based. The conditions noted are these: CT26, 72 h.
Series [8] concerns the target T2, Glutaminase kidney isoform, mitochondrial (Mus musculus, UniProt D3Z7P3).
T2 sequence (D3Z7P3 whole entry): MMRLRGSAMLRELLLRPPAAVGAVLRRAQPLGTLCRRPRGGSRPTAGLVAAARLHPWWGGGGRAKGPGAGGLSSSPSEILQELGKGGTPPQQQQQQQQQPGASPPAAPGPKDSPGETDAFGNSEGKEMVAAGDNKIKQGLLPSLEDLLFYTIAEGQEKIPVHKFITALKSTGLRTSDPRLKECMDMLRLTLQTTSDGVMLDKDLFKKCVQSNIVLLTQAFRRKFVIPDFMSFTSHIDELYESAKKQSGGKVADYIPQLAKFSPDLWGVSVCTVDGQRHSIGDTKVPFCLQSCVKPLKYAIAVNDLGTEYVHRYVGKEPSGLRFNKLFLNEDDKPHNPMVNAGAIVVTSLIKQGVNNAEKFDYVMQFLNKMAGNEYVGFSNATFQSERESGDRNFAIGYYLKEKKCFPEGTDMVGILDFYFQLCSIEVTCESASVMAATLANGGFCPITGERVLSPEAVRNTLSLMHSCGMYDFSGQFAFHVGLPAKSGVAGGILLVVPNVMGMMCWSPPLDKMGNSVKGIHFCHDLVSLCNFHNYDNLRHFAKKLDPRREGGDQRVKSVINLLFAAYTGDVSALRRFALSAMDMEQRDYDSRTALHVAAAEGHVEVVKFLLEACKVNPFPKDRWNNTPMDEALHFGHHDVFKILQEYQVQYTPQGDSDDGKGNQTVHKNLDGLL
The experiment in a line: Inhibition of GLS1 in mouse kidney assessed as inhibition of glutamate production using glutamine as substrate incubated for 1 hr by coupled assay. The series is classed as tissue-based.

The subject of the next series is H22. Briefly: Antiproliferative activity against mouse H22 cells assessed as inhibition of cell proliferation measured after 72 hrs by MTT assay. The series is classed as functional, cell-based. The conditions noted are these: H22, 72 h.
Series [9] has as its target T2, Glutaminase kidney isoform, mitochondrial. The experiment in a line: Inhibition of GLS1 in mouse brain assessed as inhibition of glutamate production using glutamine as substrate incubated for 1 hr by coupled assay. The format is tissue-based.
Series [10] concerns HCT-116. Briefly: Antitumor activity against human HCT-116 cells xenografted in BALB/c SPF mouse assessed as tumor growth inhibition at 100 mg/kg, ip administered BID for 21 days. The format is functional. Conditions: time 21 day. On the technique in general: A xenograft is tissue or cells of one species grown in another, often human tumour cells in immunodeficient mice.
The target of series [11] is T3, Glutaminase kidney isoform, mitochondrial (Homo sapiens) (UniProt O94925).
T3 sequence (whole entry): T1 sequence (O94925 whole entry)
The conditions noted are these: filed as negative allosteric modulator.
Description: Binding affinity to human GLS1 assessed as stabilization of protein by measuring change in melting temperature by protein thermal shift assay

Series [12] concerns the target T1, Glutaminase kidney isoform, mitochondrial. Briefly: Binding affinity to human GLS1 assessed as dissociation constant by surface plasmon resonance analysis.
The mark [13] stands for this setting: liver microsomes, read-out: Stability.

For `CO[C@@H](C(=O)Nc1nnc(NC2CCN(c3nnc(NC(=O)CCc4cn(CC5=CC=C(C(F)(F)F)CC5)nn4)s3)CC2)s1)c1ccccc1`, the results for the IC50 (with HCT-116 [1]; in series [3]; in the series on MDA-MB-436) were 350 nM, 4.85 nM and 840 nM, respectively. Moreover, the microsomal CLint at 10 µM in series [2] was 15.1 µL/min/mg. The half-life at 10 µM in [4] turned out to be 1.91 h. The remaining at 2 h, 1 µM in series [5] is 91%.

In the case of `O=C(Cc1cccc(OC(F)(F)F)c1)Nc1ccc(CCCCc2nnc(NC(=O)Cc3ccccn3)s2)nn1`, the Stability in series [6] (microsomes, 0.5 h, 10 µM) is recorded as 98%; in series [7] (microsomes, 1 h, 10 µM), 89%. Besides, the microsomal CLint at 10 µM in series [2] was 19.5 µL/min/mg. Also, the IC50 is 420 nM in the series with CT26; 20 nM in [8]; 1340 nM in the series with H22; 410 nM with MDA-MB-436; 20 nM in series [9]. The t1/2 in series [4] (microsomes, 10 µM) is 1.524 h. The tumour growth inhibition (TGI) in the series on HCT-116 [10] is given as 50.6%. Also, the remaining at 2 h, 1 µM in series [5] was 85%.

Regarding `O=C(Cc1ccccc1)Nc1nnc(NC2CCN(c3nnc(NC(=O)c4ccn(Cc5ccc(C(F)(F)F)cc5)n4)s3)CC2)s1`, the IC50 was 120 nM with HCT-116 [1], 17.4 nM in [3] and 530 nM in the series with MDA-MB-436. In series [2], the microsomal CLint at 10 µM turned out to be 25.2 µL/min/mg. The half-life at 10 µM in series [4] was 1.15 h. Besides, the remaining at 2 h, 1 µM in series [5] was found to be 76%.

As to `Cc1ccc(Cn2cc(CCC(=O)Nc3ccc(CCCCc4nnc(NC(=O)Cc5ccccn5)s4)nn3)nn2)cc1`, in [6] (setting [13]), the remaining at 0.5 h, 10 µM came to 56%. The microsomal CLint at 10 µM in series [2] came to 40.2 µL/min/mg. Further, the remaining at 1 h, 10 µM in series [7] (setting [13]) turned out to be 35%. In addition, the half-life at 10 µM in [4] worked out at 0.655 h. The remaining at 2 h, 1 µM in series [5] is 72%.

Take `CO[C@H](C(=O)Nc1nnc(NC2CCN(c3nnc(NC(=O)CCc4cn(Cc5ccc(C(F)(F)F)cc5)nn4)s3)CC2)s1)c1ccccc1`: the IC50 in the series on HCT-116 [1] was found to be 300 nM; in [3], 23.7 nM; in the series with MDA-MB-436, 1090 nM. Moreover, the microsomal CLint at 10 µM in [2] is 9.21 µL/min/mg. In series [4], the half-life at 10 µM came to 3.14 h. Besides, in series [5], the remaining at 2 h, 1 µM came out at 95%.

`O=C(Cc1ccccc1)Nc1nnc(NC2CCN(c3nnc(NC(=O)CCc4cn(Cc5ccc(C(F)(F)F)cc5)nn4)s3)CC2)s1`: the figures for the IC50 (with HCT-116 [1]; in series [3]; in the series on MDA-MB-436) were 130 nM, 8.66 nM and 510 nM, respectively. In addition, the microsomal CLint at 10 µM in series [2] was 23.1 µL/min/mg. In [4], the half-life at 10 µM is 1.27 h. In series [5], the remaining at 2 h, 1 µM came out at 79%.

With `O=C(Cc1ccccc1)Nc1nnc(N[C@H]2CCN(c3nnc(NC(=O)CCc4cn(-c5ccc(C(F)(F)F)cc5)nn4)s3)C2)s1`, the IC50 in the series on HCT-116 [1] was 15500 nM; in [3], 216 nM; in the series with MDA-MB-436 it was over 20000 nM.

On to `CO[C@H](C(=O)Nc1nnc(NC2CCN(c3nnc(NC(=O)CCc4cn(-c5ccc(C(F)(F)F)cc5)nn4)s3)CC2)s1)c1ccccc1`, for which the IC50 in the series on HCT-116 [1] is 160 nM; in series [3], 19.3 nM; with MDA-MB-436 it was 620 nM. The microsomal CLint at 10 µM in series [2] worked out at 5.57 µL/min/mg. In series [11], the ΔTm came out at 15.2 °C. In addition, the Kd in [12] came out at 81 nM. In series [4], the half-life at 10 µM worked out at 5.21 h. Further, in [5], the remaining at 2 h, 1 µM came to 98%.

For `Cc1ccc(Cn2cc(CCC(=O)Nc3ccc(N4CCC(Nc5nnc(NC(=O)Cc6ccccn6)s5)CC4)nn3)nn2)cc1`, the IC50 in the series on HCT-116 [1] was determined as 570 nM; in [3], 20 nM; in the series on MDA-MB-436, 470 nM.

As to `COc1ccc(Cn2cc(CCC(=O)Nc3nnc(N4CC[C@H](Nc5nnc(NC(=O)Cc6ccccc6)s5)C4)s3)nn2)cc1`, the IC50 is 14200 nM in the series on HCT-116 [1], 544 nM in [3] and over 20000 nM in the series with MDA-MB-436.
